Tests used:
CHO-K1 cells = assay: In vitro micronucleus assay; type: cell-based, Chinese hamster
Experimental: The CHO-K1 cells were seeded in 6-well plates at a density of 1 × 10^6 cells/well and incubated overnight at 37 °C, 5% CO2 atmosphere. […] The test compounds and 4MBC were dissolved in DMSO (solvent, final concentration 0.1%) and ethanol (co-solvent, final concentration 1%). After 24 h of treatment, the medium was removed, and the cells were rinsed with PBS. Then, fresh medium containing cytochalasin B (CytB; Sigma Aldrich, Darmstadt, Germany) (4.5 µg/mL) was added and incubation was continued for the next 24 h.
After the incubation period, the cells were washed with fresh medium, detached by trypsinization, and centrifuged. The supernatant was discarded and 5 mL of 1% ice-cold sodium citrate (Chempur, Piekary Śląskie, Poland) was added to the cell pellet, which was then gently resuspended. After 15 s, 5 mL of freshly prepared fixative solution (methanol/acetic acid, 3:1) and 4 drops of formaldehyde were added. The cell suspension was centrifuged (5 min, 1000 rpm), the supernatant was discarded again, and the pellet was fixed in fixative mixture two more times, without formaldehyde. After the third fixation, part of the supernatant was removed, and around 1 mL of the supernatant was retained to resuspend the cells. The suspension was then dripped onto clean, previously frozen, glass slides to dry. After air-drying, the slides were stained with Giemsa dye (1:20 in phosphate buffer) for 5 min [56, 78, 79].
One thousand binucleated cells per slide with intact nuclei of equal size, similar pattern of cytoplasm staining, intact membrane, and distinguishable from adjacent cells, without apoptotic and necrotic cells were analyzed. Only the micronuclei with the same morphology and color of the main nuclei, with 1/16 to 1/3 of the major nucleus diameter, unrefringent and not overlapping or connected to the main nuclei were counted. Moreover, the presence of dicentric bridges (DB) and nuclear buds (NB) in the binucleated cells was analyzed. The nuclear division index (NDI) was calculated using the following formula: [(1 × MOC) + (2 × BC) + (3 × MUC)]/N, where MOC is the number of mononuclear cells, BC is the number of binuclear cells, MUC represents the number of multinuclear cells, and N is the total number of scored cells. The micronucleus incidence was presented as a number of micronuclei per 1000 examined binuclear cells. The experiment was conducted two times with three repetitions for each condition.

[1] = system: Episkin^TM reconstructed human epidermis; assay: Episkin skin irritation test (MTT viability, Il-1α release; OECD 439); conditions: 26 mg/cm^2 topical, 15 min exposure, 42 h post-incubation
Description: The Episkin^TM model (aged 13 days, large/1.07 cm^2 surface area) was provided by Episkin (Lyon, France). The Episkin^TM kit consists of 12 reconstructed epidermis units made of type I collagen matrix, representing the dermis, surfaced with a film of type IV collagen, upon which is laid a stratified and differentiated epidermis derived from human keratinocytes [17]. Upon receipt of the tissues, the culture inserts were removed from the agarose-nutrient solution and transferred into 12-well plates containing 2 mL of the maintenance medium (MM) per well. The MM was provided by the manufacturer. Tissues were then incubated for 24 h at 37 °C in a humidified atmosphere of 5% CO2 before use in the permeation, irritation, or phototoxicity experiments.
Prior to the irritation experiments, the Episkin^TM inserts were washed with sterile PBS to remove traces of the MM and transferred into new 12-well plates containing 2 mL of fresh MM. […] Sodium dodecyl sulphate (SDS; Sigma-Aldrich, Darmstadt, Germany) (5% in water) and PBS were used as positive and negative controls, respectively. Both controls were applied topically (26 mg/cm^2). Samples were tested in two independent experiments using three tissues for each chemical, positive, or negative control.
Then, the tissues were placed in new 12-well plates containing 2 mL of the MM per well and incubated for an additional 42 h at 37 °C in a humidified atmosphere of 5% CO2 as post-treatment incubation time. At the end of this period, the culture media of each tissue were collected and stored at −20 °C for Il-1α measurement.
The cell viability was assessed by a subsequent incubation of the tissues for 3 h with freshly prepared 3-(4,5-dimethylthiazol-2-yl)-2,5-diphenyltetrazolium bromide (MTT; Sigma-Aldrich, Darmstadt, Germany) solution (0.3 mg/mL in assay medium (AM)) in a 12-well plate. Then, a biopsy of the epidermis was done using a puncher (Episkin, Lyon, France), and the precipitated formazan was extracted using 500 µL of acidified isopropanol (Chempur, Piekary Śląskie, Poland) (0.04 N HCl in isopropanol) for 48 h (4 °C). At the end of the extraction period, 200 µL of each sample were transferred to 96-well plates for absorbance measurements at 570 nm (A570) [70, 71, 72, 73]. […] Viability (percent of control) was determined by dividing A570 of experimental wells by A570 of control wells × 100%. The test substance was considered as an irritant when mean tissue viability was equal or less than 50% [16, 17].
Il-1α measurement was conducted by a classic enzyme-linked immunosorbent assay (ELISA) technique (Cayman Chemical, Ann Arbor, MI, USA). Firstly, 100 µL of the samples were added into a 96-well ready to use microtiter plate (precoated with a monoclonal antibody specific for Il-1α (Il-1α capture antibody). Secondly, 100 µL of an acetylcholinesterase:Fab’ Conjugate (AChE:Fab’) was added to each well. The plate was covered with plastic film and incubated overnight at 4 °C. At the end of the incubation period the contents of each well were removed and rinsed five times with wash buffer. Next, 200 µL of Ellman’s reagent (containing the substrate for AChE) was added to each well, the plate was covered with plastic film and developed in the dark using an orbital shaker. The absorbance of the wells was measured at 410 nm. Il-1α concentrations were then calculated using the standard curve.

[2] = Episkin skin permeation test (finite dose, OECD 428); type: in vitro ADME, human; conditions: human; 24 h exposure, 10 mg/cm^2 finite dose, 2% formulation; read-out: recovery in the epidermis (of the applied dose)
Experimental: (§1) The MM was provided by the manufacturer.
(§2) The receptor fluid composition was based on the pilot experiments.
(§3) The formulations of the test compounds (JH3 and JH10) and commercial UV filters were applied onto the skin surface in the donor compartment in a net dose of 10 mg/cm^2 (finite dose application) using disposable flexible loops. To quantify the dose of the formulation applied on the top of the Episkin^TM model, the loops were weighed, filled with approximately 11 mg of formulation, and then reweighed. The difference in weight was used as the amount of formulation applied. Commercial UV filters such as BP3, 4MBC, and AVO were used as reference standards. The filters were obtained from Sigma-Aldrich, Darmstadt, Germany.
(§4) The plate with tissues was embedded with parafilm and incubated at specific time points at 32 °C. As the passive diffusion of chemicals (and therefore their skin absorption) is affected by temperature, the diffusion chamber and skin were maintained at a constant temperature close to normal skin temperature of 32 ± 1 °C [19, 23, 30, 32]. At fixed time points (0, 1, 2, 3, 4, 5, 6, and 24 h), aliquots of the receptor fluid (0.5 mL) were collected from the receptor compartment and immediately replaced with fresh fluid. After 24 h the entire receptor fluid was collected, and the skin surface was washed thoroughly with cotton buds impregnated in methanol (5 times). The tissues were removed from the inserts and both the donor and receptor compartments were washed separately with methanol. The samples were stored at −20 °C until chemical analysis.
(§5) All samples were spiked with 25 µL of pentoxifylline (PTX, Sigma-Aldrich, Darmstadt, Germany) (final concentration of 20 µM) used as an internal standard prior to extraction. The samples were analyzed using ultra high-pressure liquid chromatography coupled with mass spectrometry (UHPLC/MS; Waters Corporation, Milford, MA, USA). Quantification was based on peak area and calculated from standard calibration curves of the compound adjusted by the internal standard area. The assay was in agreement with the Organization for Economic Co-operation and Development (OECD) guideline 428 [19].

[3] = system: Episkin^TM reconstructed human epidermis; assay: as above; type: in vitro ADME; conditions: 2% formulation; for absorbed amount detected in the RF (of the applied dose): 24 h exposure, 10 mg/cm^2 finite dose; for detection in the receptor fluid over time: sampling 0-6 and 24 h; for detection in the receptor fluid over time / absorption rate (amount in receptor fluid): 10 mg/cm^2; for absorption rate (amount in receptor fluid): after 24 h
Experimental: as §1, §2, §3, §4, §5

[4] = CHO-K1 cytotoxicity assay (MTT); type: cell-based; conditions: Chinese hamster, CHO-K1 cells, concentrations ranging from 1 to 10 µM
Experimental: The Chinese hamster ovary CHO-K1 cell line was obtained from the American Type Culture Collection (ATCC CCL-61). The CHO-K1 cell line was cultured in a humidified incubator at 37 °C with 5% CO2, in F-12K Medium (Kaighn’s Modification of Ham’s F-12 Medium) (ATCC) supplemented with 10% fetal bovine serum (FBS; Gibco, Waltham, MA, USA) and antibiotics (1% streptomycin/penicillin salts mixture, Sigma–Aldrich, Darmstadt, Germany).
The cells were seeded at a density of 6 × 10^3 on 96-well plates. […] Test compounds and 4MBC were dissolved in DMSO (solvent, final concentration 0.1%) and ethanol (co-solvent, final concentration 1%). At the end of the incubation period, 10 µL of MTT reagent was added to each well. After 4 h incubation (37 °C, 5% CO2), the medium was discarded, and the formazan produced in the cells appeared as dark crystals in the bottom of the wells. Next, pure DMSO was added to each well. The optical density data of converted dye was measured at 570 nm (A570) on microplate reader. […] The experiment was conducted two times with three repetitions for each condition.

[5] = parameters: method as in PMID 26674115; conditions: cited from earlier work
[6] = parameters: method as in earlier work; conditions: cited from earlier work
[7] = cited from earlier work
[8] = Episkin phototoxicity test (UVA 50 J/cm^2; MTT viability, Il-1α release); type: cell-based, human; conditions: human; 0.5 mM, UVA 50 J/cm^2; read-out: tissue viability after UVA exposure compared to non-irradiated epidermis
Experimental: as §1
Compounds JH3 and JH10 (final concentrations of 0.5 and 1 mM) solubilized in ethanol (final concentration of 1% in water) were applied topically on the tissue surface. Chlorpromazine (CPZ, chlorpromazine hydrochloride, C17H19ClN2S·HCl, CAS number: 69-09-0, molecular weight: […], purity: meets USP testing specifications, Sigma-Aldrich, Darmstadt, Germany) (final concentration of 0.5 mM, based on literature data) was used as a positive control, whereas solvent alone served as a negative control.
Duplicate plates were prepared for UVA and dark (controls) exposure purposes. After the treatment period of 2 h, the excess test compound was removed from each well, and the tissues were exposed to UVA at a non-cytotoxic dose of 50 J/cm^2 ([…] at 250 W/m^2) with a solar light simulator equipped with a window glass filter and ID65 filter (Suntest CPS+, Atlas, Linsengericht, Germany). The emitted spectrum contained both UV and visible outputs with a UV cut-on of approx. 320 nm and corresponded to ID65 per ISO 10,977 [74]. The irradiance level between 320 and 400 nm was approximated by the following equation: W/m^2 (320–400 nm) = W/m^2 (300–800 nm) ÷ 11.5. In parallel, the non-irradiated treated tissues were placed in the dark under the same conditions. […] Next, cell viability was assessed using an MTT conversion test and the culture media aliquots were kept frozen (−20 °C) for Il-1α measurement (see 2.3.2. The Episkin^TM skin irritation test method section).

SMILES: CO[C@@]12[C@H](COC(N)=O)C3=C(C(=O)C(C)=C(N)C3=O)N1C[C@@H]1N[C@@H]12 [MMC, Mitomycin C, reference compound]
- increase in the number of MNs vs normal and vehicle control (CHO-K1 cells; 0.5 µg/mL): approximately 10 fold
- increase in the number of NBs vs normal and vehicle control (CHO-K1 cells; 0.5 µg/mL): 7 fold
- MN (micronuclei) (CHO-K1 cells; 0.5 µg/mL (positive control), count in 1000 binucleated cells per slide): 88.5 ± 6.5

SMILES: CCCCCCCCCCCCOS(=O)(=O)[O-].[Na+] [SDS, Sodium dodecyl sulphate, reference compound]
- Il-1α release [1]: 96 pg/mL
- mean tissue viability ([1]; vs negative control): approximately 10%

SMILES: Cc1ccc(C=C2C(=O)C3(C)CCC2C3(C)C)cc1 (stereo not drawn) [4MBC, 3-(4-methylbenzylidene) camphor, reference compound]
- recovery at 24 h, 2 % in formulation [2]: 28%
- absorbed amount detected in the RF (of the applied dose) [3]: 3%
- detection in the receptor fluid over time [3]: detected only after 24 h exposure
- viability at 24 h [4]: > 75%
- DB (dicentric bridges) (CHO-K1 cells; Chinese hamster, 24 h, 1 µM): 4.6
- MN (micronuclei) (CHO-K1 cells; Chinese hamster, 24 h, 1 µM): 8.3 ± 2.9
- NB (nuclear buds) (CHO-K1 cells; Chinese hamster, 24 h, 1 µM): 3.7
- NDI (nuclear division index) (CHO-K1 cells; Chinese hamster, 24 h, 1 µM): 1.35
- DB (dicentric bridges) (CHO-K1 cells; Chinese hamster, 24 h, 5 µM): 4.5
- MN (micronuclei) (CHO-K1 cells; Chinese hamster, 24 h, 5 µM): 9.0 ± 3.4
- NB (nuclear buds) (CHO-K1 cells; Chinese hamster, 24 h, 5 µM): 3.5
- NDI (nuclear division index) (CHO-K1 cells; Chinese hamster, 24 h, 5 µM): 1.30
- DB (dicentric bridges) (CHO-K1 cells; Chinese hamster, 24 h, 10 µM): 3.4
- MN (micronuclei) (CHO-K1 cells; Chinese hamster, 24 h, 10 µM): 7.3 ± 4.4
- NB (nuclear buds) (CHO-K1 cells; Chinese hamster, 24 h, 10 µM): 4.9
- NDI (nuclear division index) (CHO-K1 cells; Chinese hamster, 24 h, 10 µM): 1.39
- log P [5]: 4.95
- in vitro chromosomal aberration test result [6]: negative
- bacterial mutation (Ames) assay result [7]: negative

SMILES: COc1ccc(C(=O)c2ccccc2)c(O)c1 [BP3, benzophenone-3]
- recovery at 24 h, 2 % in formulation [2]: 18%
- absorbed amount detected in the RF (of the applied dose) [3]: 12%
- absorption rate (amount in receptor fluid) [3]: 20 µg/cm^2
- detection in the receptor fluid over time [3]: clearly detectable after the third hour

SMILES: CN(C)CCCN1c2ccccc2Sc2ccc(Cl)cc21 [CPZ, Chlorpromazine, reference compound]
- viability at 2 h, 0.5 mM [8]: ~40%

SMILES: COc1ccc(C(=O)CC(=O)c2ccc(C(C)(C)C)cc2)cc1 [AVO, avobenzone]
- recovery at 24 h, 2 % in formulation [2]: 16%
- absorbed amount detected in the RF (of the applied dose) [3]: about 1%
- absorption rate (amount in receptor fluid) [3]: 3 µg/cm^2
- log P [5]: 4.51

— publication PMC8949075, “Evaluation of Two Novel Hydantoin Derivatives Using Reconstructed Human Skin Model Episkin^TM: Perspectives for Application as Potential Sunscreen Agents” (Molecules, 2022)
